Data taken from patent publication US9156824B2, “CDC7 inhibitors” (Eli Lilly and Company, priority 2013, dated 2015).
Marks after values point to notes of the source that are not given here.

What was measured:
CDC7/DBF4 = target: T1, CDC7/DBF4 (Homo sapiens, UniProt O00311); assay: CDC7/DBF4 in vitro enzyme assay (Transcreener Kinase ADP-FP); type: biochemical; settings: ATP 5 μM, MCM2 400 nM, 60 minutes, read-out: IC50 against CDC7/DBF4 kinase
T1 construct: host or cells: insect cells
Method: The Transcreener™ Kinase ADP-FP assay is used to determine compound IC50 values against CDC7/DBF4 kinase. The Kinase ADP-FP assay assesses the activity of CDC7/DBF4 in the presence of compound inhibitors by measuring the concentration of ADP formed in a kinase reaction. The kinase reaction is performed using a 25 microliter reaction volume in 96 well assay plate. For the ADP-FP assay, the reagents are added to obtain the final reaction conditions of HEPES (25 mM) pH 7.5, 0.03% Triton® X-100, magnesium chloride (10 mM), DTT (1 mM), MCM2 (400 nM) (Amino Acid 1-209, a physiological substrate of CDC7/DBF4), spermine (4 mM), CDC7/DBF4 (2,640 ng/mL) (recombinant human CDC7/DBF4 expressed in insect cells), 4% dimethyl sulfoxide and serial dilutions of compound (diluted 1:3 from 20,000 nM to 1 nM). Enzyme and substrate is added to compound followed by ATP to 5 μM to start the reaction. The plates are incubated at room temperature for 60 minutes.
For the ADP-FP format add 25 microliters of a quench detection reagent containing HEPES (52 mM) pH 7.5, EDTA (20 mM), sodium chloride (0.4 M), polyoxyethyleneglycol dodecyl ether (0.02%) (BRIJ-35™), anti-ADP antibody (10 μg/mL), and ADP (4 nM) Transcreener® ADP Alexa Fluor® 633 tracer to quench the reaction. The plates are incubated for 1 hour, and then read in a Wallac EnVision™ 2104 Multilabel Reader (PerkinElmer) in Fluorescence Polarization mode using polarizing filters of Ex620nm and Em688nm wavelength. Millipolarization (mP) raw data is converted to micromolar ADP using a prepared ADP/ATP standard curve starting at 5 μM ADP 1:1 serial dilution in reaction buffer to 0.0025 μM ADP. The IC50 value for each compound is derived using percent inhibition data calculated from the μM ADP reaction data relative to on-plate controls (DMSO versus 100 mM EDTA inhibited enzyme controls). The percent inhibition and ten-point compound concentration data is then fitted to a four-parameter logistic equation.

[1] = Antitumor efficacy in human colorectal carcinoma SW620 mouse xenograft model; type: in vivo; settings: female, athymic Balb/c nude, mouse, in vivo, po; BID orally for 2 weeks, tumor-bearing nude mice; read-out: maximum tolerated dose
Method: (§1) The in vivo anticancer activity of Example 4 is studied in human colorectal adenocarcinoma cell line SW620 mouse xenograft tumor model which is predicted to be sensitive based on in vitro cell counting proliferative assay data described above. The SW620 cell line is obtained from American Type Culture Collection (ATCC) and is cultured in Leibovitz's L-15 Medium with 10% fetal bovine serum following ATCC instructions. SW620 cell suspension (5.0×10^6/0.2 mL) is injected subcutaneously to the right flank of each female athymic Balb/c nude mice. The mice (5-6 weeks old at arrival) are obtained from Shanghai Sippr-bk Laboratory Animals Ltd. Upon receipt and throughout the study, the animals are housed 5 animals per cage in appropriately sized solid-bottom cages with contact bedding Animals are acclimated for 7 days prior to implantation of the SW620 cells. Animals are fed with Shanghai Laboratory Animal Center certified Rodent Diet with 23% Protein ad libitum and autoclaved tap water is provided ad libitum. The animal room is maintained on a 12-hour light/dark cycle. When the tumor volume reaches an average of 154.9 mm^3 (9 days post tumor implantation), the tumor bearing animals are randomly grouped into 9 groups (8 animals/group) with similar mean tumor volume and body weight. The average body weight of the tumor-bearing mice is 17.3 g. The compound is formulated in HEC 1% w/v, P80 0.25% v/v, and antifoam 1520-US 0.025% v/v in deionized water by probe sonication for 15 minutes on ice and compound formulation is prepared daily for animal dosing. The formulated compound is administered at 10.4, 20.8 and 31.2 mg/kg doses (containing 10, 20 and 30 mg/kg active pharmaceutical ingredient API, respectively) twice a day (BID) by oral gavage (0.1 mL/20 g) for 2 weeks. The BID dosing is performed about 8 hours apart (approximately 9 am and 5 pm each day). The vehicle is also given BID as the control arm of the study. Tumor volume and body weight are measured 3 times a week in a blinded manner. Tumor volume is determined by caliper measurements (mm) and using the formula for an ellipsoid sphere: tumor volume (mm^3)=length×width^2/2, where length and width refer to the larger and smaller perpendicular dimensions collected at each measurement. The animal behavior and animal health are monitored twice a day during dosing period. The study is terminated on day 28 post treatment initiation.
(§2) The statistical analysis of the tumor volume data begins with a data transformation to a log scale to equalize variance across time and treatment groups. The log volume data are analyzed with a two-way repeated measures analysis of variance by time and treatment using the MIXED procedures in SAS software (Version 9.3). The correlation model for the repeated measures is Spatial Power. Treated groups are compared to the control group at each time point. The MIXED procedure is also used separately for each treatment group to calculate adjusted means and standard errors at each time point. Both analyses account for the autocorrelation within each animal and the loss of data that occurs when animals with large tumors are removed from the study early. The adjusted means and standard errors are plotted for each treatment group versus time. The analysis comparing the treated groups to the control groups at each time point uses the log 10 tumor volumes and produces the p-values. For statistical significance of p-values shown, “***”=P<0.001.
(§3) If T>T0, the Delta T/C, % calculation is used. […]

SW620 xenograft tumors = assay: as above; type: in vivo; settings: for % T/C day 16: SW620 xenograft
Method: as §1, §2, §3

T1 sequence (O00311 whole entry): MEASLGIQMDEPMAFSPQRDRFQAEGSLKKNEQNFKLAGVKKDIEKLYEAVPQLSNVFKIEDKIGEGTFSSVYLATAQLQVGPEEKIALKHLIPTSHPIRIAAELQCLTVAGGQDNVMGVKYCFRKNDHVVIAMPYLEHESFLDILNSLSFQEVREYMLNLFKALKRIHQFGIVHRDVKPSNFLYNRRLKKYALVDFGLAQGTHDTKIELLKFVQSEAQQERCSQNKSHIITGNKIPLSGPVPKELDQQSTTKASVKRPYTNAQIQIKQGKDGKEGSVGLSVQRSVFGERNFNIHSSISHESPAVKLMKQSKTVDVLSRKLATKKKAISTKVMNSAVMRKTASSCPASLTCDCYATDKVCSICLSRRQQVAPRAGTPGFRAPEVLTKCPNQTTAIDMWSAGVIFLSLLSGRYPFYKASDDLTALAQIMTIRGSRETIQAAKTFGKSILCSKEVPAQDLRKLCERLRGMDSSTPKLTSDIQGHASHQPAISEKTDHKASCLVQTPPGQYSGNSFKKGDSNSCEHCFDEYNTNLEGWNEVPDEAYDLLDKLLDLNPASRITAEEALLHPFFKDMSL
T1 sequence (Q9UBU7 whole entry partner): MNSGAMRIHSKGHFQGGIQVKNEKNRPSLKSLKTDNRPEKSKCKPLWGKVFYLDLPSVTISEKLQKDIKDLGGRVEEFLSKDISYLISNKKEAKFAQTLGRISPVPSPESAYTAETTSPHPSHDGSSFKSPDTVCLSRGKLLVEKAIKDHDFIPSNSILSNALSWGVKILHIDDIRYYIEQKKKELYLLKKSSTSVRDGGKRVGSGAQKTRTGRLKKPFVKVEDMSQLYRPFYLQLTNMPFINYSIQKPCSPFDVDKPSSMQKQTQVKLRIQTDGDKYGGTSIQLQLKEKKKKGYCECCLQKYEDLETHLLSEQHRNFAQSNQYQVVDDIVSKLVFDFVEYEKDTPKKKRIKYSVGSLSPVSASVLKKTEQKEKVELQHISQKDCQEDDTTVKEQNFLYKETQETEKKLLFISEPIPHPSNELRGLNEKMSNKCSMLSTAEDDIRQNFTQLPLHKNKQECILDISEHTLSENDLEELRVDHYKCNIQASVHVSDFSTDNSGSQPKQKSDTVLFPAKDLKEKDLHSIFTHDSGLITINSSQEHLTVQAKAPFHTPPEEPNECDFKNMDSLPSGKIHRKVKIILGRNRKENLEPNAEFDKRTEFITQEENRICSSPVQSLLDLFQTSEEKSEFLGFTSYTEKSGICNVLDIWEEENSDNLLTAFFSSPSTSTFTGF

With CC1(c2ncncc2F)NC(=O)c2cc(-c3cn[nH]c3)ccc21 (single isomer, unassigned; isomer 2) [Example 4, 3-(5-Fluoropyrimidin-4-yl)-3-methyl-6-(1H-pyrazol-4-yl)isoindolin-1-one, Isomer 2, Hydrate] the IC50 (CDC7/DBF4) was 3.3 nM, the MTD at 2 weeks [1] was 31.2 mg/kg and the “% T/C day 16” value (SW620 xenograft tumors; 10.4 mg/kg BID × 14, orally) was 26.1*** %. For the same compound, the “% T/C day 16” value (SW620 xenograft tumors; 20.8 mg/kg BID × 14, orally) was 5.7*** %, the “% T/C day 16” value (SW620 xenograft tumors; 31.2 mg/kg BID × 14, orally, negative value = regression) was −66.1*** % and the “tumor growth after dosing cessation” value (SW620 xenograft tumors; 31.2 mg/kg BID, 2 weeks after dosing cessation) was “no significant tumor growth”.
